The structures appear in SMILES notation.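 A five-concentration, 48-hour dose response in 96-well plates underlies each endpoint, interpolated linearly between surrounding concentrations. TGI is the concentration that stops growth completely.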 Some results are limits rather than exact numbers.

This is an account of results in PubChem BioAssay (NCI).

Assay in all cases: growth of human tumour cells (NCI), 48 h
The subject of test [1] is NCI/ADR-RES ovarian.
The subject of test [2] is HCC-2998 colon.
The test system of test [3] is CCRF-CEM leukemia.
The subject of test [4] is 786-0 renal.
For test [5], the system named is COLO 205 colon.
Test [6] has as its system SK-MEL-5 melanoma.
The test system of test [7] is M14 melanoma.
In test [8] the test system is OVCAR-8 ovarian.
Test [9] deals with HL-60(TB) leukemia.
For test [10], the system named is SNB-19 CNS.
Test [11] concerns RPMI-8226 leukemia.
Test [12] concerns SK-MEL-2 melanoma.
Test [13] relates to SN12C renal.
Test [14] relates to HOP-92 NSCLC.
Test [15] concerns SF-268 CNS.
Test [16] concerns MOLT-4 leukemia.
Test [17] relates to KM12 colon.
In test [18] the test system is IGROV1 ovarian.
Test [19] has as its system NCI-H23 lung.

Take `O=C1CCSc2nc(-c3ccc4c(c3)OCO4)nn21`: the TGI in test [1], in [2], in test [3], in [4], in test [5] and in [6] was greater than 10 µM each time. Further, the TGI in test [7], in [8], in test [9], in test [10], in test [11] and in test [12] was greater than 10 µM throughout. Also, the TGI in [13], in test [14], in test [15], in test [16], in [17] and in test [18] was greater than 10 µM in each case. The compound further yielded a TGI in [19] greater than 10 µM.

For the compound `Cc1ccc(SCC(CF)OC(C)n2cnc3c(Cl)nc(N)nc32)cc1` (centres undefined), the TGI in test [1] was greater than 100 µM; in test [2] it was greater than 100 µM; in [3], greater than 100 µM; in test [4], greater than 100 µM; in [5], greater than 100 µM; in test [6], 53.7 µM. In addition, the TGI in test [7] is greater than 100 µM; in test [8] it was greater than 100 µM; in test [9], 86.3 µM; in test [10], greater than 100 µM; in test [11], greater than 100 µM; in test [12], greater than 100 µM. Further, the TGI in [13], in test [14], in test [15], in test [16], in [17] and in test [18] was greater than 100 µM each time. In [19], the TGI is greater than 100 µM.

In the case of `O=C(O)c1cccc(OCCOc2cccc(C(=O)O)c2[N+](=O)[O-])c1[N+](=O)[O-]`, the TGI in [1], in [2], in [3], in [4], in test [5] and in [6] was greater than 100 µM each time. Also, the TGI in test [7], in [8], in test [9], in test [10], in test [11] and in [12] was greater than 100 µM in each case. The TGI in test [13], in test [14], in test [15], in test [16], in test [17] and in [18] was greater than 100 µM in each case. In test [19], this compound showed a TGI greater than 100 µM.

For `CCOC(=O)c1cn(CC)c2ccc3ccsc3c2c1=O`, the TGI in [1], in test [2], in [3], in test [4], in [5] and in test [6] was greater than 100 µM throughout. In addition, the TGI in test [7], in test [8], in [9], in test [10], in test [11] and in [12] was greater than 100 µM in each case. Further, the TGI in [14], in test [15], in test [16], in test [17], in test [18] and in [19] was greater than 100 µM throughout.

`CC(C)COP(C)(=O)C(N)(C(F)(F)F)C(F)(F)F` (centres undefined): the TGI in test [1], in [2], in [3], in test [4], in [5] and in test [6] was greater than 100 µM each time. For the same compound, the TGI in [7], in test [8], in test [9], in test [11], in test [12] and in test [13] was greater than 100 µM throughout. Besides, the TGI in [14], in test [15], in [16], in test [17], in [18] and in test [19] was greater than 100 µM in each case.

As to `CO[C@H]1O[C@@H]2OC3(C)CCC4[C@H](C)CCC([C@H]1C)[C@]42OO3` (some centres undefined), the TGI in test [1], in test [2], in [3], in test [4], in [5] and in test [6] was greater than 100 µM in each case. The TGI in [7] is greater than 100 µM; in [8], greater than 100 µM; in test [9] it was 46.7 µM; in [10], greater than 100 µM; in [11] it was greater than 100 µM; in test [12], greater than 100 µM. In addition, the TGI in test [13], in [14], in test [15], in test [16], in test [18] and in [19] was greater than 100 µM each time.

Consider `COc1ccccc1NC(=O)C(=O)Cc1cnc2ccccc2n1`, for which the TGI in [1], in test [2], in test [3], in test [4], in test [5] and in [6] was greater than 100 µM throughout. For the same compound, the TGI in test [7], in [8], in test [9], in [10], in test [11] and in test [12] was greater than 100 µM throughout. In addition, the TGI in [13], in [14], in test [15], in test [16], in [17] and in test [19] was greater than 100 µM throughout.

With `Cc1ccc(S(=O)(=O)ON2C(=O)c3c(N)c(C#N)c(-c4ccccc4)c(-c4ccccc4)c3C2=O)cc1`, the TGI worked out at 62.4 µM in [1]; 89.1 µM in test [2]; 27 µM in [3]; 29.8 µM in test [4]; 33.1 µM in [5]; 40.6 µM in test [6]. Besides, the TGI in test [7] is 29.5 µM; in test [8] it was 46 µM; in test [9], 11.7 µM; in [10], greater than 100 µM; in test [11], 89.6 µM; in test [12], 54.2 µM. For the same compound, the TGI in test [13] was 40 µM; in test [14], 49.4 µM; in test [15], greater than 100 µM; in test [16] it was 38.7 µM; in test [17], greater than 100 µM; in test [18], 30.6 µM.

On to `O=c1oc2ccc3ccccc3c2cc1-c1cn2c(n1)sc1ccccc12`, for which the TGI in test [1], in test [2], in test [3], in test [4], in test [5] and in test [6] was greater than 100 µM throughout. Also, the TGI in test [7], in [8], in [9], in [10], in test [11] and in [12] was greater than 100 µM each time. In addition, the TGI in test [14] was greater than 100 µM; in test [15], greater than 100 µM; in test [16], 14 µM; in test [17], greater than 100 µM; in test [18] it was greater than 100 µM; in [19], greater than 100 µM.

`COC(=O)CC(CNC(=O)OCc1ccccc1)OCc1ccc(OC)cc1` (centres undefined): the TGI in test [1], in test [2], in [3], in [4], in test [5] and in [6] was greater than 100 µM throughout. The TGI in test [7], in test [8], in [9], in test [10], in test [11] and in test [12] was greater than 100 µM each time. Also, the TGI in test [13], in test [14], in test [16], in test [17], in test [18] and in [19] was greater than 100 µM each time.

Turning to `Cc1c(-c2nc(N)c(C#N)c(N)c2C#N)c(=O)oc2ccccc12`, the TGI in test [1], in test [2], in test [3], in test [4], in test [5] and in test [6] was greater than 100 µM throughout. Further, the TGI in test [7] is greater than 100 µM; in test [8], greater than 100 µM; in test [9], greater than 100 µM; in [10], greater than 100 µM; in [11], 62.4 µM; in test [12], greater than 100 µM. Moreover, the TGI in test [13], in test [14], in test [15], in [17], in test [18] and in test [19] was greater than 100 µM each time.

On to `Cn1nc(-c2ccccc2)c2c(-c3ccccc3)c3cc(Cl)ccc3nc21`, for which the TGI is greater than 25.7 µM in test [1]; greater than 100 µM in test [2]; greater than 100 µM in test [3]; greater than 100 µM in test [4]; greater than 100 µM in [6]; greater than 100 µM in test [7]. Also, the TGI in test [8], in test [9], in [10], in test [11], in test [12] and in test [13] was greater than 100 µM each time. Further, the TGI is greater than 25 µM in test [14]; greater than 100 µM in [15]; greater than 100 µM in [16]; greater than 100 µM in test [17]; greater than 100 µM in test [18]; greater than 100 µM in [19].
